Test results: patent publication US12234233B2, “Crystal form of phosphodiesterase inhibitor, preparation method therefor and use thereof” (TRANSTHERA SCIENCES (NANJING), INC., priority 2019, dated 2025)

Key:
[1] = Pharmacokinetic evaluation in rats; assay type: in vivo, male SD rats
Description: Test substances: the compound of formula (I) was prepared by example 1 of the present invention, and the crystal form I was prepared by example 2 of the present invention.
Administration to Animals and Sample Collection:
(§1) the compound of formula (I) for the experiment was dissolved with 2% DMSO+10% PEG400+88% (28% HP-3-CD) physiological saline to prepare a solution; the solution of the test substance was administered to SD rats by gavage at a dose of 5.0 mg/kg; and the blood sampling time points were 15 min, 30 min, 1 h, 2 h, 4 h, 6 h, 8 h and 24 h after administration.
as §1, with “The compound” for “the compound”, “by intravenous bolus” for “by gavage”, “of 1” for “of 5.0”, “were 5 min,” for “were”
The crystal form I for the experiment was dissolved with 5% DMSO+10% PEG400+85% (20% captisol) physiological saline solution to prepare a solution; the solution of the test substance was administered to SD rats by gavage at a dose of 60.0 mg/kg; and the blood sampling time points were 15 min, 30 min, 1 h, 2 h, 4 h, 8 h, 24 h, 30 h and 48 h after administration.
The crystal form I for the experiment was dissolved with 2% DMSO+10% PEG400+88% (28% HP-β-CD) physiological saline to prepare a solution; the solution of the test substance was administered to SD rats by intravenous bolus at a dose of 5 mg/kg; and the blood sampling time points were 5 min, 15 min, 30 min, 1 h, 4 h, 8 h, 12 h and 24 h after administration.
Compound of formula (I): the ordinary SD rats were used and fixed; the tails of the rats were heated in a water bath 10 minutes before each time point; and about 100 μL of blood was collected via a tail vein, and then placed in an anticoagulation tube containing EDTA-K2. The blood sample was centrifuged at 8000 rpm at 4° C. for 6 min to obtain a plasma sample, which was prepared within 30 minutes after blood collection. The plasma was stored in a refrigerator at −80° C. before the test.
Crystal form I: the rats were subjected to jugular vein cannulation (JVC); each time, about 0.35 ml of blood was collected from the rats via a jugular vein cannula into a centrifuge tube containing 5 μl of 15% EDTA-K2; the mixture was gently mixed to obtain a homogeneous mixture, and then the centrifuge tube was placed in an ice bath immediately. Within 1 hour after collecting whole blood, the mixture was centrifuged at 4° C. and 2400×g for 5 minutes, and the supernatant was immediately collected to obtain a plasma sample. The plasma was stored in a refrigerator at −80° C. before the test.
the plasma sample to be tested was taken out from the −80° C. refrigerator, subjected to natural melting at room temperature, and then vortexed for 5 min; […] of the plasma sample was precisely pipetted into a 1.5 mL centrifuge tube; […] of the internal standard working solution (tolbutamide in methanol) at a concentration of 100 ng/mL was added, and the mixture was mixed homogeneously; the homogeneous mixture was vortexed for 5 min, and then centrifuged at 12000 rpm for 5 min; 50 μL of the supernatant was precisely pipetted into a 96-well plate pre-filled with 150 μL of water/well; and the plate was vortexed for 5 min for homogenization, and subjected to LC-MS/MS assay, with a sample loading volume of 5 μL. […]

[2] = Solubility in test solutions at different pHs and water; assay type: physicochemical; conditions: 37° C.
Description: (§2) Test substances: the compound of formula (I) was prepared by example 1 of the present invention, the crystal form I was prepared by example 2 of the present invention, the crystal form II was prepared by example 16 of the present invention, the crystal form III was prepared by example 20 of the present invention, the crystal form IV was prepared by example 24 of the present invention, the crystal form V was prepared by example 25 of the present invention, the crystal form VI was prepared by example 27 of the present invention, and the crystal form VII was prepared by example 31 of the present invention.
Preparation of Buffered Salt Solutions at Different pHs:
hydrochloric acid solution at pH 1.0:9 ml of hydrochloric acid was pipetted, and water was added for dilution to 1000 ml; the mixture was mixed homogeneously to obtain a hydrochloric acid solution at pH 1.03. Phosphate buffered solution at pH 4.5:1.56 g of sodium dihydrogen phosphate dihydrate was weighed, and 200 ml of water was added to obtain a phosphate buffered solution at pH 4.50. Phosphate buffered solution at pH 6.8:1.56 g of sodium dihydrogen phosphate dihydrate was weighed, and 200 ml of water was added; and the mixture was adjusted to pH 6.80 with 1 mol/L sodium hydroxide solution.
preparation of buffered solutions at different pHs (samples for determining solubility):
50 mg of each test substance was weighed, and 5 ml of the hydrochloric acid solution (pH 1.0) was added; and the mixture was mixed homogeneously with shaking. About 2.5 mg of each test substance was weighed, and 5 ml of the phosphate buffered solution (pH 4.5), 5 ml of the phosphate buffered solution (pH 6.8), and 5 ml of ultrapure water were added, respectively; the mixture was mixed homogeneously with shaking, and then placed in a 37° C. water bath shaker for shaking; the samples were collected at 24 hours and subjected to centrifugation; and the supernatant was taken and directly injected (if the solubility was high, the supernatant was diluted with a 0.1 mol/L hydrochloric acid solution to an appropriate multiple and then injected).
The solubility of the samples was quantitatively calculated according to the single-point external standard method.

[3] = Stability test of different crystal forms; assay type: physicochemical
Description: as §2, with “substances:” for “substances: the compound of formula (I) was prepared by example 1 of the present invention,”
Method: the appropriate amount of different test substances were taken, and placed at 105° C. for 3 days, and at 60° C. and RH 92.5% under light for 5 days and 10 days, respectively; and the samples were collected on day 0, day 3, day 5 and day 10 to investigate the changes in the trait and content of the samples.
Table 5 and Table 6 show the results of the trait and content after placement at 105° C. for 3 days. Table 7 and Table 8 show the results of the trait and content after placement at 60° C. and RH 92.5% under light for 5 days. Table 9 and Table 10 show the results of the trait and content after placement at RH 92.5% under light for 10 days.

[4] = male SD rats, intravenous bolus 1 mg/kg
[5] = pH 1.0 hydrochloric acid solution
[6] = pH 4.5 phosphate buffered solution
[7] = pH 6.8 phosphate buffered solution

SMILES | 24-hour solubility ([2]; Water) [µg/mL] | 24-hour solubility [2, 5] [µg/mL] | 24-hour solubility [2, 6] [µg/mL] | 24-hour solubility [2, 7] [µg/mL] | Content ([3]; 0 day) [%] | Trait ([3]; 0 day) | Content ([3]; Placed at 105° C. for 3 days) [%] | Trait ([3]; Placed at 105° C. for 3 days) | Content ([3]; Placed at RH 92.5% for 10 days) [%] | Trait ([3]; Placed at RH 92.5% for 10 days) | Content ([3]; Placed under light for 10 days) [%] | Trait ([3]; Placed under light for 10 days) | Content ([3]; Placed at 60° C. for 5 days) [%] | Content ([3]; Placed at RH 92.5% for 5 days) [%] | Content ([3]; Placed under light for 5 days) [%] | further results
CCc1cc2c(N3CCC(C)(OC)CC3)c(C#N)c(=O)[nH]c2cn1 [Compound of formula (I), 6-ethyl-4-(4-methoxy-4-methylpiperidin-1-yl)-2-oxo-1,2-dihydro-1,7-diazanaphthal ene-3-carbonitrile] | 170 | 5270 | 160 | 160 |  |  |  |  |  |  |  |  |  |  |  | Tmax ([1]; Sprague-Dawley, rat, plasma, po, male SD rats, gavage 5.0 mg/kg): 30 min; pharmacokinetic characteristics ([1]; conclusion from Table 2, rats): excellent pharmacokinetic characteristics; AUClast PO/Dose ([1]; male SD rats, gavage 5.0 mg/kg): 387.2 h*ng/mL per mg/kg; tz1/2 PO ([1]; male SD rats, gavage 5.0 mg/kg): 2.68 h; AUClast iv/Dose [1, 4]: 748 h*ng/mL per mg/kg; Cl_obs iv [1, 4]: 24.2 mL/min/kg; Vz_obs iv [1, 4]: 2.13 L/kg; tz1/2 iv [1, 4]: 1.25 h
CCc1cc2c(N3CCC(C)(OC)CC3)c(C#N)c(=O)[nH]c2cn1 [Crystal form II, 6-ethyl-4-(4-methoxy-4-methylpiperidin-1-yl)-2-oxo-1,2-dihydro-1,7-diazanaphthal ene-3-carbonitrile] | 160 | 4540 | 160 | 140 | 99.8 | Yellow powder | 99.5 | Yellow powder | 99.8 | Yellow powder | 99.4 | Yellow powder |  |  |  | 
CCc1cc2c(N3CCC(C)(OC)CC3)c(C#N)c(=O)[nH]c2cn1 [Crystal form III, 6-ethyl-4-(4-methoxy-4-methylpiperidin-1-yl)-2-oxo-1,2-dihydro-1,7-diazanaphthal ene-3-carbonitrile] | 230 |  | 150 | 120 | 99.9 | Yellow powder | 99.7 | Yellow powder |  |  |  |  | 99.9 | 99.9 | 99.8 | 
CCc1cc2c(N3CCC(C)(OC)CC3)c(C#N)c(=O)[nH]c2cn1 [Crystal form IV, 6-ethyl-4-(4-methoxy-4-methylpiperidin-1-yl)-2-oxo-1,2-dihydro-1,7-diazanaphthal ene-3-carbonitrile] | 140 | 1640 | 130 | 130 | 90.9 | Yellow powder |  |  | 90.8 | Yellow powder | 90.9 | Yellow powder |  |  |  | 
CCc1cc2c(N3CCC(C)(OC)CC3)c(C#N)c(=O)[nH]c2cn1 [Crystal form V, 6-ethyl-4-(4-methoxy-4-methylpiperidin-1-yl)-2-oxo-1,2-dihydro-1,7-diazanaphthal ene-3-carbonitrile] | 330 | 4670 | 350 | 360 | 97.3 | Yellow powder |  |  | 97.4 | Yellow powder | 98.1 | Yellow powder |  |  |  | 
CCc1cc2c(N3CCC(C)(OC)CC3)c(C#N)c(=O)[nH]c2cn1 [Crystal form VI, 6-ethyl-4-(4-methoxy-4-methylpiperidin-1-yl)-2-oxo-1,2-dihydro-1,7-diazanaphthal ene-3-carbonitrile] | 260 |  | 170 | 140 | 99.9 | Yellow powder | 99.7 | Yellow powder |  |  |  |  | 99.8 | 99.9 | 99.6 | 
CCc1cc2c(N3CCC(C)(OC)CC3)c(C#N)c(=O)[nH]c2cn1 [Crystal form VII, 6-ethyl-4-(4-methoxy-4-methylpiperidin-1-yl)-2-oxo-1,2-dihydro-1,7-diazanaphthal ene-3-carbonitrile] | 150 | 7550 | 140 | 130 | 100.0 |  |  |  |  |  |  |  | 99.9 | 100.0 | 99.6 | 
